Laboratory results reported in ChEMBL document CHEMBL2057173, “Synthesis and SAR studies of bicyclic amine series GPR119 agonists” (Bioorg Med Chem Lett, 2012).

Assays:
[1] = molecular target: T1, Glucose-dependent insulinotropic receptor (Mus musculus, UniProt Q7TQP3); test: Agonist activity at mouse GPR119 receptor expressed in CHO-K1 cells assessed as cAMP accumulation after 30 mins by HTRF assay; format: functional, cell-based
T1 sequence (Q7TQP3 whole entry): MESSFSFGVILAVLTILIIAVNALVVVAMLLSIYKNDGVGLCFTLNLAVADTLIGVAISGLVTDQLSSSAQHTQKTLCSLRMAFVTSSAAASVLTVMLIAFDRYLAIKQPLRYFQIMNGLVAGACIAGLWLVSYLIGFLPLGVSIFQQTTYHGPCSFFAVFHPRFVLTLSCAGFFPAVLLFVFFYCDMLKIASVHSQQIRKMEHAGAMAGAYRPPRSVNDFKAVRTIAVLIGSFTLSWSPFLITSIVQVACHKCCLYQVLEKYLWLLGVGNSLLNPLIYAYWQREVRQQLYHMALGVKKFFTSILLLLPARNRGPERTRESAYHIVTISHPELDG

[2] = molecular target: T2, Glucose-dependent insulinotropic receptor (Homo sapiens, UniProt Q8TDV5); test: Agonist activity at human GPR119 receptor expressed in CHO-K1 cells assessed as cAMP accumulation after 30 mins by HTRF assay; format: functional, cell-based
T2 sequence (Q8TDV5 whole entry): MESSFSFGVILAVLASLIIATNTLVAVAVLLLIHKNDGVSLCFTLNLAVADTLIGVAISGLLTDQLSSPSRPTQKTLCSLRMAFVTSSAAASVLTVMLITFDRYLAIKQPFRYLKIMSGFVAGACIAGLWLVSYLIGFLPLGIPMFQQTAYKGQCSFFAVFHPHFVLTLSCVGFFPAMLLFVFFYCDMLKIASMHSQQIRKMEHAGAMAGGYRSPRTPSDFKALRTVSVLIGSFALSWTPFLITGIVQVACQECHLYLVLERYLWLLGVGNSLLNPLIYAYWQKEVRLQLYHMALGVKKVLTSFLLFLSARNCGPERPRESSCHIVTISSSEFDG

[3] = molecular target: T3, Glucose-dependent insulinotropic receptor (Mus musculus) (UniProt Q7TQP3); test: Agonist activity at mouse GPR119 receptor expressed in CHO-K1 cells assessed as cAMP accumulation after 30 mins by HTRF assay relative to AR231453; format: functional, cell-based
T3 sequence (whole entry): T1 sequence (Q7TQP3 whole entry)

[4] = molecular target: T4, Glucose-dependent insulinotropic receptor (Homo sapiens) (UniProt Q8TDV5); test: Agonist activity at human GPR119 receptor expressed in CHO-K1 cells assessed as cAMP accumulation after 30 mins by HTRF assay relative to AR231453; format: functional, cell-based
T4 sequence (whole entry): T2 sequence (Q8TDV5 whole entry)

Mus musculus [5] = test: Antidiabetic activity in fasted C57BL/6j mouse assessed as decrease in glucose excursion at 10 mg/kg, po administered 30 mins prior to subcutaneous glucose-challenge after 120 mins by subcutaneous glucose tolerance test; format: functional; set-up: scale not given: the % may be the effect or the level left
Mus musculus [6] = test: Antidiabetic activity in po dosed fasted C57BL/6j mouse assessed as decrease in glucose excursion administered 30 mins prior to oral glucose-challenge by oral glucose tolerance test; format: functional, organism-based
Mus musculus [7] = test: Antidiabetic activity in fasted C57BL/6j mouse assessed as decrease in glucose excursion at 10 mg/kg, po administered 30 mins prior to oral glucose-challenge measured after 120 mins by oral glucose tolerance test; format: functional; set-up: scale not given: the % may be the effect or the level left
Mus musculus [8] = test: Antidiabetic activity in fasted C57BL/6j mouse assessed as increase in plasma GLP-1 level at 30 mg/kg, po after 30 mins by ELISA relative to control; format: functional
Mus musculus [9] = test: Antidiabetic activity in fasted C57BL/6j mouse assessed as decrease in glucose excursion at 3 mg/kg, po administered 30 mins prior to oral glucose-challenge measured after 120 mins by oral glucose tolerance test; format: functional; set-up: scale not given: the % may be the effect or the level left
[10] = molecular target: T4, Glucose-dependent insulinotropic receptor (Homo sapiens); test: Agonist activity at human GPR119 receptor expressed in CHO-K1 cells assessed as cAMP accumulation at 1 uM after 30 mins by HTRF assay; format: functional, cell-based
[11] = molecular target: T4, Glucose-dependent insulinotropic receptor (Homo sapiens); test: Agonist activity at human GPR119 receptor expressed in CHO-K1 cells assessed as cAMP accumulation at 10 uM after 30 mins by HTRF assay; format: functional, cell-based

SMILES	EC50 [1] [µM]	EC50 [2] [µM]	Emax [3] [%]	Emax [4] [%]	other results
CC(C)(C)OC(=O)N1CCC(CCCNc2ccc3c(c2)C(=O)CCO3)CC1	0.351	0.272	108	100	
CC(C)(C)OC(=O)N1CCC(CCCNc2ccc3c(c2)S(=O)(=O)CC3)CC1		1.03		25	
CC(C)(C)OC(=O)N1CCC(OCCNc2ccc3c(c2)CCS3(=O)=O)CC1				33	Activity [10]: 33%
CC(C)(C)OC(=O)N1CCC(CCCNc2ccc3c(c2)OCS3(=O)=O)CC1	0.266	0.254	105	93	
CC(C)c1nnc(N2CCC(CCCNc3ccc4c(c3)OCC4=O)CC2)o1	1.02	0.704	88	85	
CC(C)(C)OC(=O)N1CCC(CCCOc2ccc3c(c2)CCS3(=O)=O)CC1		0.736		84	
CC(C)(C)OC(=O)N1CCC(CCCC(=O)Nc2ccc3c(c2)CCS3(=O)=O)CC1		2.61		56	
CC(C)(C)OC(=O)N1CCC(CCCNc2ccc3c(c2)OCCS3(=O)=O)CC1		0.511		81	
CC(C)c1nc(N2CCC(CCCNc3ccc4c(c3)OCC4=O)CC2)no1		0.161		91	
CC(C)(C)OC(=O)N1CCC(CCCNc2ccc3c(c2)CCCCC3=O)CC1		0.77		38	
CC(C)(C)OC(=O)N1CCC(CCCNc2ccc3c(c2)CCS3(=O)=O)CC1	0.224	0.27	83	80	
CC(C)(C)OC(=O)N1CCC(CCCNc2ccc3c(c2)NNS3(=O)=O)CC1	0.331	0.268	95	99	
CN(CCNc1ccc2c(c1)CCS2(=O)=O)C1CCN(C(=O)OC(C)(C)C)CC1				10	Activity [11]: 10%
CC(C)(C)OC(=O)N1CCC(CCCNc2ccc3c(c2)C(=O)NC3)CC1	0.892	0.734	97	89	
CC(C)(C)OC(=O)N1CCC(CCCNc2ccc3c(c2)CNC3=O)CC1	0.515	0.55	102	91	
CC(C)(C)OC(=O)N1CCC(CCCCNc2ccc3c(c2)CCS3(=O)=O)CC1		0.21		62	

Continued, in another order:

EC50 [1] [µM]	EC50 [2] [µM]	Emax [3] [%]	Emax [4] [%]	SMILES	other results
0.167	0.051	110	113	CCc1cnc(N2CCC(CCCNc3ccc4c(c3)C(=O)CC4)CC2)nc1	Activity (Mus musculus [5]): 32%; Activity (Mus musculus [6]): Dose-dependent effect; Activity (Mus musculus [7]): 38%; fold change (FC) (Mus musculus [8]): >2; Activity (Mus musculus [9]): 29%
0.087	0.086	105	85	CC(C)(C)OC(=O)N1CCC(CCCNc2ccc3c(c2)CCC3=O)CC1	
0.262	0.088	116	95	CC(C)(C)OC(=O)N1CCC(CCCNc2ccc3c(c2)C(=O)CO3)CC1	
0.158	0.058	113	110	CC(C)c1noc(N2CCC(CCCNc3ccc4c(c3)C(=O)CC4)CC2)n1	
0.06	0.115	106	101	COc1cnc(N2CCC(CCCNc3ccc4c(c3)OCC4=O)CC2)nc1	
0.812	0.121	93	10	CC(C)c1nsc(N2CCC(CCCNc3ccc4c(c3)OCC4=O)CC2)n1	
0.139	0.149	67	85	COC(=O)c1cnc(N2CCC(CCCNc3ccc4c(c3)OCC4=O)CC2)nc1	
0.123	0.046	110	98	CC(C)(C)OC(=O)N1CCC(CCCNc2ccc3c(c2)C(=O)CC3)CC1	
0.159	0.117	98	115	CCc1cnc(N2CCC(CCCNc3ccc4c(c3)OCC4=O)CC2)nc1	
	0.073		94	CC(C)c1noc(N2CCC(CCCNc3ccc4c(c3)OCC4=O)CC2)n1	
0.066	0.052	108	94	CC(C)(C)OC(=O)N1CCC(CCCNc2ccc3c(c2)OCC3=O)CC1	
	0.145		65	CC(C)(C)OC(=O)N1CCC(CCCCCNc2ccc3c(c2)CCS3(=O)=O)CC1	
